# From patent publication US12178825B2, “Method and compositions for forming a copper-containing complex and uses thereof” (COLD SPRING HARBOR LABORATORY, priority 2017, dated 2024)
# Entries after “also recorded” stand apart in the source; their conditions may differ.
# Tests used:
# PTP1B = PTP1B (Homo sapiens, UniProt P18031); assay: PTP1B inhibition (Ki); type: biochemical
# TX mice = assay: Tissue and fecal copper levels (ICP-MS, rhodanine staining); type: in vivo, mouse; details: TX mice, ICP-MS
# Method: C3He-Atp7b^tx-j were obtained from the Jackson laboratory. All animal experiments were performed according to protocols approved by the Institutional Animal Use and Care Committee of Cold Spring Harbor laboratory. Mice were injected intraperitoneally (i.p.) with vehicle, or administered DPM-1001 intraperitoneally or orally at 5 mg/kg once every third day, for over a year. At the end of the study animals were euthanized and tissue samples were removed for biochemical studies.
# Tissue samples from wild-type or TX mice treated with saline, DPM-1001 or tetrathiomolybdate was washed three times with PBS containing 1 mM EDTA (to remove nonspecifically bound copper). Then, 215 μl of concentrated nitric acid (BDH Aristar Ultra) was added to each sample and incubated overnight. Samples were boiled at 95° C. for 1 h. and approximately 150 μl of each sample was further diluted in 2 ml 2% nitric acid (made freshly from concentrated nitric acid and Milli-Q water) Samples were analyzed on a Thermo Fisher iCAP Qc ICP mass spectrometer in kinetic energy discrimination (KED) mode against a calibration curve of known copper and phosphorus concentrations, with Ga (20 μg/l, Inorganic Ventures) as an internal standard, Each experiment was carried out twice and each condition was repeated in at least triplicate.
# Liver tissues from wild-type and TX mice from untreated and DPM-1001-treated mice were sectioned and stained with H&E or rhodanine. Whole-slide, digitized images of H&E-stained tissue were captured using the Aperio ScanScope XT automated scanning system (Vista, CA). Image J software was used to quantitate rhodanine staining.
# MDA-MB-231 cells = assay: MDA-MB-231 orthotopic xenograft; type: in vivo, SCID-beige mice; details: mice with TNBC xenograft, 5 mg/kg intraperitoneally every day
# Method: MDA-MB-231 cells (2×10^6) were injected orthotopically into mammary fat pads of SCID-beige mice (Tectonic lab) in 15 μl of a 1:1 mixture with DMEM and growth factor-reduced Matrigel (BD Biosciences). The animals were randomly assigned to three groups to receive saline (control), DPM-1001 (5 mg/kg) or DPM-1003 (5 mg/kg) intraperitoneally everyday once the tumors reached about 200 mm^3. Tumor growth was monitored every third day and volume in mm^3 was measured three times weekly by palpation using the formula: volume=width^2×length/2. Once the tumor volume reached above 500 mm^3 in saline treated mice, the study was terminated. Tumors from all mice were removed for biochemical analysis.
# TNBC cells = assay: Cellular copper levels by ICP-MS; type: cell-based
# Method: TNBC cells (1×10^6) were plated in a 10-cm culture dish in growth medium. About 24 h after seeding cells, they were untreated or treated with DPM-1001 (2 uM) or DPM-1003 (2 uM) for 2 h. Following which, cells were washed three times with PBS. Then, 215 μl of concentrated nitric acid (BDH Aristar Ultra) was added to each sample and incubated overnight. Samples were boiled at 95° C. for 1 h. and approximately 150 μl of each sample was further diluted in 2 ml 2% nitric acid (made freshly from concentrated nitric acid and Milli-Q water). Samples were analyzed on a Thermo Fisher iCAP Qc ICP mass spectrometer in kinetic energy discrimination (KED) mode against a calibration curve of known copper and phosphorus concentrations, with Ga (20 μg/l, Inorganic Ventures) as an internal standard. Each experiment was carried out twice and each condition was repeated in at least triplicate.
# [1] = Direct copper-binding assay with radiolabelled copper
# Method: Direct binding assays were performed using radiolabelled copper (64 Cu^2+). Varying concentration of radiolabeled copper (0-100 nM) was incubated with DPM-1001 (100 nM). Excess copper was removed by running the samples through a desalting column. The amount of metal bound to the compound was quantitated directly by scintillation counting. For assays with the protein, His-tagged PTP1B (100 nM) was incubated with varying concentrations of Cu-DPM-1001 complex for 60 min in assay buffer (50 mM Hepes, 100 mM NaCl, 0.1% BSA pH 6.5) at 25° C. Protein-bound and free compound were separated by incubating the protein-inhibitor mixture with 50 μl of 50% Ni-NTA beads for 10 min at 25° C. The beads were washed with assay buffer containing 150 mM NaCl and 25 mM Imidazole three times, and the inhibitor bound to protein was determined by scintillation counting. The amount of bead-bound protein was estimated by BCA protein quantification.
# Direct binding assays were performed using radiolabelled copper (64 Cu^2+). […] The amount of metal bound to the compound was quantitated directly by scintillation counting. […] The inhibitor bound to protein was determined by scintillation counting. The amount of bead-bound protein was estimated by BCA protein quantification. For protein quantitation the bead bound protein was precipitated with TCA (25% final) on ice for 30 minutes. […]
# [2] = test system: triple-negative breast cancer (TNBC) cell lines; assay: MTT cell survival, triple-negative breast cancer cell lines; type: cell-based
# Method: (§1) The MTT assay was used to evaluate cell survival in the absence and presence of different compounds. The thiazolyl blue tetrazolium bromide (MTT) was dissolved in phosphate buffered saline (PBS) at a concentration of 5 mg/ml, filtered, and stored at 4° C. About 10,000 cells were seeded into a 96-well plate and cultured in growth medium containing serum. After 24 hours, cells were treated with the indicated concentrations of DPM-1001 or DPM-1003 (0-100 uM) for 2 hrs. Following which 20 μl MTT was added into each well. An ELISA plate reader (Biotek, Winooski, Vermont, USA) was used to measure the optical density at 490 nm.
# [3] = ESI-MS analysis of complex formation with a series of other metal ions; type: binding; details: panel of metals
# Method: Eight equivalents of M(NO3)2·xH2O or MSO4·xH2O were reacted with 1 eq. of DPM-1001, DPM-1003 or analog 2 (1 mM in H2O). The reaction solutions were stirred at RT, 40° C. and 80° C. for 2 h. Each sample was diluted 5-fold in 50% methanol, 0.1% formic acid and loaded into a 500 μL syringe. A Thermo Vantage triple quadrupole mass spectrometer (Thermo Scientific), equipped with an HESI spray source was coupled to an Accela HPLC system (Thermo Scientific). Mobile phase A consisted of 0.1% formic acid and mobile phase B consisted of 0.1% formic acid in methanol. Isocratic flow was set to 50% B at 200 μL/min. 200 μl samples were injected into the LC flow line via syringe pump at 10 μL/min and electrosprayed into the Vantage triple quadrupole mass spectrometer. A spray voltage of 4.3 kV was used along with a capillary temperature of 350° C. Each full MS scan was 0.5 s and data were collected with a scan range of 200 m/z to 900 m/z over 1 min.
# non-TNBC cell lines = assay: MTT cell survival, non-TNBC cell lines; type: cell-based
# Method: as §1
# PAK1 [4] = molecular target: T1, PAK1 (Homo sapiens, UniProt Q13153); assay: Cu-binding assay with kinase; details: read-out: Kd, copper binding to PAK1
# Method: Direct binding assays were performed using radiolabelled copper (64 Cu^2+). Varying concentration of radiolabeled copper (0-10 uM) was incubated with recombinant PAK1 (100 nM). Excess copper was removed by running the samples through a desalting column. The amount of metal bound to the protein was quantitated directly by scintillation counting.
# PAK1 [5] = molecular target: T1, PAK1; assay: Kinase activity assay (ADP-Glow, MBP substrate); type: biochemical; details: in the presence of Cu(II)
# Method: In brief, recombinant PAK1 (20 nM) or recombinant MEK1 (20 nM) were incubated for 30 min in 180 μl of kinase buffer in the presence or absence of CuSO4 (5 μM). The activity of the kinase was monitored using MBP as substrate by ADP-Glow assay (Promega) as per user's manual.
# [6] = test system: ATP7B-knockdown HepG2 cells; assay: Copper-induced toxicity, MTT cell survival; type: cell-based; details: copper concentrations greater than 0.5 mM
# Method: HepG2 cells purchased from ATCC were cultured in RPMI media containing 10% FBS, 5% CO2 at 37 C. Control (AG09319) and Wilson's disease patient-derived fibroblasts (GM00032, GM00033, GM05257, GM12158, GM05798 and GM11778) were obtained from Coriell Biorepository and cultured in DMEM, 10% FBS, 5% CO2 at 37° C.
# For cell survival assays, 10,000 cells were seeded in a 96 well plate and cultured until fully confluent (90%). To these cells, ATP7B siRNAs or scrambled siRNA (negative control) purchased from Qiagen and Santa Cruz Biotechnology were transfected. Lipofectamine RNAiMAX reagent (Thermofischer) and siRNAs were diluted into a final volume of 100 μl in Opti-MEM (Gibco). The mixture was incubated at room temperature for 30 min, following which 800 μl of Opti-MEM was added to the mixture. The above transfection solution was overlaid onto cells at a final concentration of 5 nM siRNA. Transfection of HepG2 cells with scrambled siRNA served as negative control. Twelve hours after the transfection, complete media was added to each well. Following which, knockdown efficiency was checked (24 hours later) and cells were exposed to varying concentration of copper (0-1 mM) for 12 h and cell viability was determined using the MTT assay as previously described (37). […]
# MEK1 = MEK1 (Homo sapiens, UniProt Q02750); assay: Cu-binding assay with kinase; details: read-out: Kd, copper binding to MEK1
# Chain of MEK1 (Q02750 whole entry): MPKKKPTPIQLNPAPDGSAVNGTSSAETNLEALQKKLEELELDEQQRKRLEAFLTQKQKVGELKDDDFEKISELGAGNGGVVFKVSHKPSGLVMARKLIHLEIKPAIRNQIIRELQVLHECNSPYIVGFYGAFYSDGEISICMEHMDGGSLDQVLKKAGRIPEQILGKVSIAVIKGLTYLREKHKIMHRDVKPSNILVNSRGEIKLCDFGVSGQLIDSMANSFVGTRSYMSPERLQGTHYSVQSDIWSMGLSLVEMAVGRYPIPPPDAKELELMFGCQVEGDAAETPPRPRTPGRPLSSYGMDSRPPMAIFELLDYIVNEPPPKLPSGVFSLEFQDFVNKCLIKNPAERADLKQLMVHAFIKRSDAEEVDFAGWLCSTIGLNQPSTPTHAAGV
# T1 sequence (Q13153 whole entry): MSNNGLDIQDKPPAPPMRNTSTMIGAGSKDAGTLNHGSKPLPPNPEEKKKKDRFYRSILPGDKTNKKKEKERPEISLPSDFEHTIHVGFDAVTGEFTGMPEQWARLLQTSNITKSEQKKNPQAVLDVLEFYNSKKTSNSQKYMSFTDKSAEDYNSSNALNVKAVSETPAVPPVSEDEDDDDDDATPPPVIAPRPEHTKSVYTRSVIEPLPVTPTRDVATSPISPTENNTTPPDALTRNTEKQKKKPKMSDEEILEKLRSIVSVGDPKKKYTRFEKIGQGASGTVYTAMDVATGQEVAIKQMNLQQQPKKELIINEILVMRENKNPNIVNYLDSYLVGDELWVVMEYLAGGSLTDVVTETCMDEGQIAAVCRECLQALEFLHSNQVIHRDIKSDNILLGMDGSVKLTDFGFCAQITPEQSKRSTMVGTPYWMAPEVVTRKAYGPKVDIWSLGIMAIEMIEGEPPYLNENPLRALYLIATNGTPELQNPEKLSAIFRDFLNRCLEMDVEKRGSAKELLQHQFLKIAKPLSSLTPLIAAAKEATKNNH
# Chain of PTP1B (P18031 whole entry, species assumed): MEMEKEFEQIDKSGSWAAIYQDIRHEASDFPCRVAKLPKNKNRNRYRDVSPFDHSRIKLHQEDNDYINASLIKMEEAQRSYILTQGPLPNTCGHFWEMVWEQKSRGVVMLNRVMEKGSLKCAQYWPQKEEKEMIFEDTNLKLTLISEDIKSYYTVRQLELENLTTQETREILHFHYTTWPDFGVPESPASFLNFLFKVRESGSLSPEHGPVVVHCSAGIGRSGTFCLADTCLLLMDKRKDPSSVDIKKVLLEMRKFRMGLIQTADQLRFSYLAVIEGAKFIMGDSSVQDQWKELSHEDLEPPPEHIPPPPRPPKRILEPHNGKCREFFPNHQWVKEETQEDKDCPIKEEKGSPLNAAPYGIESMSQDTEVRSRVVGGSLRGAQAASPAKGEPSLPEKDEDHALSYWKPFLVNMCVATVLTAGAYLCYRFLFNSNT
SMILES,Ki (PTP1B),copper levels in liver and brain (TX mice),tumor volume / tumor size (MDA-MB-231 cells),cellular copper levels (TNBC cells),binding to copper (in words) [1],survival of triple-negative breast cancer cells [2],complex formation with other metals [3],"survival of non-TNBC cell lines, DPM-1001 versus DPM-1003 (non-TNBC cell lines)",Kd (PAK1 [4]),Vmax of PAK1 kinase activity (PAK1 [5]),survival of ATP7B-KD1 [6],Kd (MEK1)
COC(=O)CCC(C)C1CCC2C3C(O)CC4CC(NCCCCNCc5cccnc5)CCC4(C)C3CCC12C (stereo not drawn) [DPM-1003],2000 nM,did not affect levels of copper in liver tissue; also recorded: did not suppress the levels of the metal in liver,without effect; also recorded: not by DPM-1003; also recorded: did not reduce tumor size or inhibit tumor growth,does not reduce copper levels,does not bind copper with high affinity; also recorded: limited binding; also recorded: does not bind with high affinity to or form a complex with copper,did not affect survival; also recorded: does not inhibit the survival,limited binding,did not differ from each other,–,–,–,–
[Cu+2] [copper],–,–,–,–,–,–,–,–,15 nM,834.4,less than 20%,5 nM
